Experimental findings from patent US20260008818A1, “CYCLIC PEPTIDE OR SALT THEREOF, AND USES THEREOF” (FUJIFILM Corporation, priority 2023, published 2026) are described below.

Bridge positions count the residues as written; N and C are the ends. Ends that are not written are not given here. COCH2 = acetyl group that carries the bridge

This assay concerns Recombinant Human FGFR1 alpha (IIIc) Fc Chimera Protein. Description: Binding affinity of enzymatically synthesized cyclic peptide to FGFR by ELISA. Particulars: luminescence signal at reaction concentration 10 nmol/L, SEQ ID NO: 39 standardized to 1, enzyme synthesis product. As to the method: The binding affinity of the cyclic peptide to FGFR was evaluated using an ELISA method.
The binding affinity of the enzymatically synthesized cyclic peptide to FGFR was measured by evaluating the amount of the cyclic peptide bound to FGFR by ELISA.
First, 5 ng of Recombinant Human FGFR1 alpha (IIIc) Fc Chimera Protein CF (R&D systems, 658-FR-050) was immobilized in each well of a 96-well plate, and blocked with Pierce Protein-Free (PBS) Blocking Buffer (Thermo, 37572), and a cyclic peptide diluted with Can Get Signal Immunoreaction Enhancer Solution I (TOYOBO, NKB-101) was then added and reacted at room temperature for 3 hours. After washing with 0.05% Tween 20-containing phosphate buffered saline (PBS), an anti-Myc antibody (Cell Signaling, 14038S) diluted with Can Get Signal Immunoreaction Enhancer Solution II (TOYOBO, NKB-101) was added and reacted at room temperature for 2 hours. After washing with 0.05% Tween 20-containing PBS, SuperSignal ELISA Femto Substrate (Thermo, 37075) was added, and the luminescence amount was measured. The dose-response relationship was calculated from using the difference between the luminescence amount in the well in which FGFR was immobilized and the luminescence amount in the well in which FGFR was not immobilized, and the concentration of the cyclic peptide at the time of reaction, and the binding affinity to FGFR was evaluated according to the following evaluation criteria. The evaluation result preferably satisfies the evaluation criteria A, B, or C.
In a case where a value of a luminescence signal emitted by the cyclic peptide set forth in SEQ ID NO: 39 at a reaction concentration of 10 nmol/L is standardized to 1, evaluation criteria of the luminescence signal value emitted by the cyclic peptide at a reaction concentration of 10 nmol/L is as follows. • A: 0.7 or more • B: 0.5 or more and less than 0.7 • C: 0.1 or more and less than 0.5 • D: less than 0.1.

Consider “331 (HCSYERLIFHGHLAPFWVK(COCH2)V; thioether 2-19 (inferred)) [compound 331]”, for which the “Evaluation result of binding affinity to FGFR” value (“Evaluation result” below) is reported as “A (0.7 or more)”. In the case of “38 (WCQLVWQGHKAPYLTLK(COCH2)L; thioether 2-17) [compound 38]”, the “Evaluation result” value is “B (0.5 or more and less than 0.7)”. With “61 (HCSYERLQFAGHEAPFRVK(COCH2)V; thioether 2-19 (inferred)) [compound 61]”, the “Evaluation result” value is recorded as “A (0.7 or more)”. “356 (ACWLRHIYQGHKAPFLIWSTK(COCH2)S; thioether 2-21) [compound 356]”: the “Evaluation result” value is “B (0.5 or more and less than 0.7)”.

On to “266 (PCSWVQLQYQGFTAPFLVK(COCH2)Y; thioether 2-19 (inferred)) [compound 266]”, for which the “Evaluation result” value is “C (0.1 or more and less than 0.5)”. Take “225 (HCTWERLIFLGHIAPFWVK(COCH2)R; thioether 2-19 (inferred)) [compound 225]”: the “Evaluation result” value was “C (0.1 or more and less than 0.5)”. As to “357 (ACWLRHIYQGHQAPFLIWSTK(COCH2)Y; thioether 2-21) [compound 357]”, the “Evaluation result” value is “C (0.1 or more and less than 0.5)”.

Take “88 (HCYYERLQFHGHEAPFRVKV; not fully specified; Description of Artificial Sequence: Cyclic peptide) [compound 88]”: the “Evaluation result” value was “A (0.7 or more)”.

Consider “86 (HCVYERLQFHGHEAPFRVKV; not fully specified; Description of Artificial Sequence: Cyclic peptide) [compound 86]”, for which the “Evaluation result” value was “A (0.7 or more)”. As to “222 (HCSYERLQFHGHEAPFRVK(COCH2)R; thioether 2-19 (inferred)) [compound 222]”, the “Evaluation result” value is “A (0.7 or more)”. As for “101 (HCSWERLQFHGHEAPFRVK(COCH2)V; thioether 2-19 (inferred)) [compound 101]”, the “Evaluation result” value is “A (0.7 or more)”. On to “200 (HCSYERLQFHGHEAPFTVK(COCH2)V; thioether 2-19 via Ac; not fully specified) [compound 200]”, for which the “Evaluation result” value is reported as “A (0.7 or more)”. For the substance “90 (HCNYERLQFHGHEAPFRVKV; not fully specified; Description of Artificial Sequence: Cyclic peptide) [compound 90]”, the “Evaluation result” value is listed as “A (0.7 or more)”.

Turning to “39 (HCSYERLQFHGHEAPFRVKV; also: cyclic peptide, ring not given here) [compound 39]”, the “Evaluation result” value is reported as “A (0.7 or more)”. The value for “83 (HCPYERLQFHGHEAPFRVKV; not fully specified; Description of Artificial Sequence: Cyclic peptide) [compound 83]” was “A (0.7 or more)”; that for “339 (YCITQHPWAPFWVVNPWDNK(COCH2)L; thioether 2-20 (inferred)) [compound 339]” was “C (0.1 or more and less than 0.5)”; that for “304 (HCSYERLQFHMHEAPFRVK(COCH2)V; thioether 2-19 (inferred)) [compound 304]” was “C (0.1 or more and less than 0.5)”. For the substance “307 (HCSYERLQFHGHEAPFMVK(COCH2)V; thioether 2-19 (inferred)) [compound 307]”, the “Evaluation result” value is “A (0.7 or more)”.

On to “183 (HCSYERLQFHGHWAPFRVK(COCH2)V; thioether 2-19 via Ac) [compound 183]”, for which the “Evaluation result” value is reported as “A (0.7 or more)”.

Consider “152 (HCSYERLNFHGHEAPFRVK(COCH2)V; thioether 2-19 (inferred)) [compound 152]”, for which the “Evaluation result” value is “A (0.7 or more)”. In the case of “275 (WCIRRLYSPWGHVAPFWVK(COCH2)P; thioether 2-19 (inferred)) [compound 275]”, the “Evaluation result” value was “B (0.5 or more and less than 0.7)”. As to “189 (HCSYERLQFHGHRAPFRVK(COCH2)V; thioether 2-19 via Ac) [compound 189]”, the “Evaluation result” value was “A (0.7 or more)”. For “136 (HCSYELLQFHGHEAPFRVK(COCH2)V; thioether 2-19 (inferred)) [compound 136]”, the “Evaluation result” value is “C (0.1 or more and less than 0.5)”. For the substance “308 (HCSYERLQFHGHEAPFRMK(COCH2)V; thioether 2-19 (inferred)) [compound 308]”, the “Evaluation result” value is “C (0.1 or more and less than 0.5)”. The value for “100 (HCSFERLQFHGHEAPFRVK(COCH2)V; thioether 2-19 (inferred)) [compound 100]” was “A (0.7 or more)”; that for “195 (HCSYERLQFHGHEAPFYVK(COCH2)V; thioether 2-19 via Ac) [compound 195]” was “A (0.7 or more)”; that for “243 (LCRYVKLRVGLHIAPFLIK(COCH2)S; thioether 2-19 (inferred)) [compound 243]” was “C (0.1 or more and less than 0.5)”. On to “52 (SCYERVVLFGWQAPYWAK(COCH2)P; thioether 2-18 (inferred)) [compound 52]”, for which the “Evaluation result” value was “B (0.5 or more and less than 0.7)”. The value for “84 (HCLYERLQFHGHEAPFRVKV; not fully specified; Description of Artificial Sequence: Cyclic peptide) [compound 84]” was “A (0.7 or more)”.

With “41 (TCFVQLWFVDKPAPFLVK(COCH2)T; thioether 2-18 (inferred)) [compound 41]”, the “Evaluation result” value is “B (0.5 or more and less than 0.7)”. As for “46 (ACWVQYLWHGHAAPFLIK(COCH2)S; thioether 2-18 (inferred)) [compound 46]”, the “Evaluation result” value is “C (0.1 or more and less than 0.5)”.

Consider “242 (HK(COCH2)TWERLIFLGHIAPFWVCS; thioether 2-19 (inferred)) [compound 242]”, for which the “Evaluation result” value is listed as “A (0.7 or more)”.

As for “106 (HCSYERLQFHWHEAPFRVK(COCH2)V; thioether 2-19 (inferred)) [compound 106]”, the “Evaluation result” value is “C (0.1 or more and less than 0.5)”.

Turning to “282 (TCQWEQLRIGPHLAPFRSK(COCH2)R; thioether 2-19 (inferred)) [compound 282]”, the “Evaluation result” value was “C (0.1 or more and less than 0.5)”. As to “34 (CRALLRGAPFHLAEC; disulfide 1-15) [compound 34]”, the “Evaluation result” value is on record as “D (less than 0.1)”. Take “303 (HCSYERLQFMGHEAPFRVK(COCH2)V; thioether 2-19 (inferred)) [compound 303]”: the “Evaluation result” value is reported as “A (0.7 or more)”.

With “146 (HCSYERLLFHGHEAPFRVK(COCH2)V; thioether 2-19 (inferred)) [compound 146]”, the “Evaluation result” value is on record as “A (0.7 or more)”. The value for “159 (HCSYERLQIHGHEAPFRVK(COCH2)V; thioether 2-19 (inferred)) [compound 159]” was “C (0.1 or more and less than 0.5)”.
